#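 Five compound concentrations were applied to cells in 96-well plates for 48 hours; endpoints were derived by simple linear interpolation of the resulting dose-response curve. GI50 is the concentration that inhibits growth by half. TGI: concentration producing complete growth inhibition.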
# Key:
# Assay in all cases: inhibition of tumour cell growth, NCI panel, 48 h
# NCI-H460 lung = tested on: NCI-H460 lung
# U251 CNS = tested on: U251 CNS
# SNB-19 CNS = tested on: SNB-19 CNS
# MDA-MB-435 = tested on: MDA-MB-435
# SN12C renal = tested on: SN12C renal
# SF-539 CNS = tested on: SF-539 CNS
# HT29 colon = tested on: HT29 colon
# HCC-2998 colon = tested on: HCC-2998 colon
# OVCAR-8 ovarian = tested on: OVCAR-8 ovarian
# UACC-257 melanoma = tested on: UACC-257 melanoma
# UO-31 renal = tested on: UO-31 renal
# SK-OV-3 ovarian = tested on: SK-OV-3 ovarian
# OVCAR-4 ovarian = tested on: OVCAR-4 ovarian
# SNB-75 CNS = tested on: SNB-75 CNS
# OVCAR-3 ovarian = tested on: OVCAR-3 ovarian
# HOP-62 NSCLC = tested on: HOP-62 NSCLC
# PC-3 prostate = tested on: PC-3 prostate
# RPMI-8226 leukemia = tested on: RPMI-8226 leukemia
# HL-60(TB) leukemia = tested on: HL-60(TB) leukemia
# K-562 leukemia = tested on: K-562 leukemia
# SF-295 CNS = tested on: SF-295 CNS
# SR leukemia = tested on: SR leukemia
# LOX IMVI melanoma = tested on: LOX IMVI melanoma
# NCI/ADR-RES ovarian = tested on: NCI/ADR-RES ovarian
# HOP-92 NSCLC = tested on: HOP-92 NSCLC
# SW-620 colon = tested on: SW-620 colon
# HCT-116 colon = tested on: HCT-116 colon
# EKVX NSCLC = tested on: EKVX NSCLC
# KM12 colon = tested on: KM12 colon
# ACHN renal = tested on: ACHN renal
# A498 renal = tested on: A498 renal
# SK-MEL-28 melanoma = tested on: SK-MEL-28 melanoma
# 786-0 renal = tested on: 786-0 renal
# CCRF-CEM leukemia = tested on: CCRF-CEM leukemia
# MOLT-4 leukemia = tested on: MOLT-4 leukemia
# MDA-MB-231 breast = tested on: MDA-MB-231 breast
# MALME-3M melanoma = tested on: MALME-3M melanoma
# DU-145 prostate = tested on: DU-145 prostate
# NCI-H226 lung = tested on: NCI-H226 lung
# CAKI-1 renal = tested on: CAKI-1 renal
# IGROV1 ovarian = tested on: IGROV1 ovarian
# T-47D breast = tested on: T-47D breast
# SK-MEL-5 melanoma = tested on: SK-MEL-5 melanoma
# MCF7 breast = tested on: MCF7 breast
# HS 578T breast = tested on: HS 578T breast
# HCT-15 colon = tested on: HCT-15 colon
# SK-MEL-2 melanoma = tested on: SK-MEL-2 melanoma
# A549 NSCLC = tested on: A549 NSCLC
# UACC-62 melanoma = tested on: UACC-62 melanoma
# NCI-H522 lung = tested on: NCI-H522 lung
# M14 melanoma = tested on: M14 melanoma
# COLO 205 colon = tested on: COLO 205 colon
# SF-268 CNS = tested on: SF-268 CNS
# NCI-H23 lung = tested on: NCI-H23 lung
# BT-549 breast = tested on: BT-549 breast
# TK-10 renal = tested on: TK-10 renal
# OVCAR-5 ovarian = tested on: OVCAR-5 ovarian
compound,measurement,setting,value
CCNCCOc1ccc(/C(=C(/CC)c2ccc(Cl)cc2)c2ccc(OCCCN(C)C)cc2)cc1,GI50,NCI-H460 lung,3.9 µM
same,TGI,NCI-H460 lung,7.6 µM
same,GI50,U251 CNS,3.17 µM
same,TGI,U251 CNS,6.61 µM
same,GI50,SNB-19 CNS,4.45 µM
same,TGI,SNB-19 CNS,8.21 µM
same,GI50,MDA-MB-435,3.77 µM
same,TGI,MDA-MB-435,7.34 µM
same,GI50,SN12C renal,3.84 µM
same,TGI,SN12C renal,7.42 µM
same,GI50,SF-539 CNS,3.97 µM
same,TGI,SF-539 CNS,7.51 µM
same,GI50,HT29 colon,980 nM
same,TGI,HT29 colon,3.79 µM
same,GI50,HCC-2998 colon,3.93 µM
same,TGI,HCC-2998 colon,7.72 µM
same,GI50,OVCAR-8 ovarian,3.91 µM
same,TGI,OVCAR-8 ovarian,7.64 µM
same,GI50,UACC-257 melanoma,4.04 µM
same,TGI,UACC-257 melanoma,7.83 µM
same,GI50,UO-31 renal,3.32 µM
same,TGI,UO-31 renal,6.68 µM
same,GI50,SK-OV-3 ovarian,4.36 µM
same,TGI,SK-OV-3 ovarian,8.34 µM
same,GI50,OVCAR-4 ovarian,3.83 µM
same,TGI,OVCAR-4 ovarian,8.07 µM
same,GI50,SNB-75 CNS,3.68 µM
same,TGI,SNB-75 CNS,7.45 µM
same,GI50,OVCAR-3 ovarian,3.46 µM
same,TGI,OVCAR-3 ovarian,6.87 µM
same,GI50,HOP-62 NSCLC,4.24 µM
same,TGI,HOP-62 NSCLC,8.69 µM
same,GI50,PC-3 prostate,4.01 µM
same,TGI,PC-3 prostate,9.01 µM
same,GI50,RPMI-8226 leukemia,4.98 µM
same,TGI,RPMI-8226 leukemia,13.5 µM
same,GI50,HL-60(TB) leukemia,5.83 µM
same,TGI,HL-60(TB) leukemia,11.1 µM
same,GI50,K-562 leukemia,933 nM
same,TGI,K-562 leukemia,2430 nM
same,GI50,SF-295 CNS,4.44 µM
same,TGI,SF-295 CNS,8.24 µM
same,GI50,SR leukemia,2980 nM
same,TGI,SR leukemia,8.52 µM
same,GI50,LOX IMVI melanoma,3.72 µM
same,TGI,LOX IMVI melanoma,7.37 µM
same,GI50,NCI/ADR-RES ovarian,4.19 µM
same,TGI,NCI/ADR-RES ovarian,8.08 µM
same,GI50,HOP-92 NSCLC,818 nM
same,TGI,HOP-92 NSCLC,4.47 µM
same,GI50,SW-620 colon,1750 nM
same,TGI,SW-620 colon,5.24 µM
same,GI50,HCT-116 colon,2780 nM
same,TGI,HCT-116 colon,6.48 µM
same,GI50,EKVX NSCLC,4.32 µM
same,TGI,EKVX NSCLC,8.1 µM
same,GI50,KM12 colon,3.94 µM
same,TGI,KM12 colon,7.59 µM
same,GI50,ACHN renal,4.41 µM
same,TGI,ACHN renal,8.02 µM
same,GI50,A498 renal,3.38 µM
same,TGI,A498 renal,6.98 µM
same,GI50,SK-MEL-28 melanoma,4.16 µM
same,TGI,SK-MEL-28 melanoma,7.78 µM
same,GI50,786-0 renal,3.57 µM
same,TGI,786-0 renal,7.44 µM
same,GI50,CCRF-CEM leukemia,5.08 µM
same,TGI,CCRF-CEM leukemia,11.4 µM
same,GI50,MOLT-4 leukemia,4.56 µM
same,TGI,MOLT-4 leukemia,9.41 µM
same,GI50,MDA-MB-231 breast,4.06 µM
same,TGI,MDA-MB-231 breast,7.73 µM
same,GI50,MALME-3M melanoma,3.95 µM
same,TGI,MALME-3M melanoma,7.57 µM
same,GI50,DU-145 prostate,3.99 µM
same,TGI,DU-145 prostate,7.5 µM
same,GI50,NCI-H226 lung,3.74 µM
same,TGI,NCI-H226 lung,7.59 µM
same,GI50,CAKI-1 renal,4.39 µM
same,TGI,CAKI-1 renal,8.05 µM
same,GI50,IGROV1 ovarian,4.17 µM
same,TGI,IGROV1 ovarian,7.85 µM
same,GI50,T-47D breast,3.05 µM
same,TGI,T-47D breast,7.55 µM
same,GI50,SK-MEL-5 melanoma,4.51 µM
same,TGI,SK-MEL-5 melanoma,8.21 µM
same,GI50,MCF7 breast,1300 nM
same,TGI,MCF7 breast,4.94 µM
same,GI50,HS 578T breast,3.26 µM
same,TGI,HS 578T breast,7.63 µM
same,GI50,HCT-15 colon,2190 nM
same,TGI,HCT-15 colon,5.54 µM
same,GI50,SK-MEL-2 melanoma,4.13 µM
same,TGI,SK-MEL-2 melanoma,7.77 µM
same,GI50,A549 NSCLC,3.33 µM
same,TGI,A549 NSCLC,7.15 µM
same,GI50,UACC-62 melanoma,4.48 µM
same,TGI,UACC-62 melanoma,8.22 µM
same,GI50,NCI-H522 lung,4 µM
same,TGI,NCI-H522 lung,8.04 µM
same,GI50,M14 melanoma,4.3 µM
same,TGI,M14 melanoma,8.31 µM
same,GI50,COLO 205 colon,3.13 µM
same,TGI,COLO 205 colon,7.84 µM
same,GI50,SF-268 CNS,3.89 µM
same,TGI,SF-268 CNS,7.92 µM
same,GI50,NCI-H23 lung,4.31 µM
same,TGI,NCI-H23 lung,8.15 µM
same,GI50,BT-549 breast,3.45 µM
same,TGI,BT-549 breast,7.16 µM
same,GI50,TK-10 renal,3.99 µM
same,TGI,TK-10 renal,8.07 µM
same,GI50,OVCAR-5 ovarian,4.07 µM
same,TGI,OVCAR-5 ovarian,7.67 µM

# Reference: PubChem BioAssay (NCI)
